This note sets out measurements from patent publication US20210052616A1, “ANTHRACYCLINE ENCAPSULATED WITH A POLYSACCHARIDE FOR USE IN THE TREATMENT OF TUMOURS” (NANOVELOS S.A, priority 2018, published 2021).

The conditions of this series: 10 mg/kg bw every 3 days, following 3 administrations.

Structures are written as SMILES.

Description: Following Example 3, mice were obtained constituting an ovarian tumour test model, which were divided into 3 groups.

On to `COc1cccc2c1C(=O)c1c(O)c3c(c(O)c1C2=O)C[C@@](O)(C(=O)CO)C[C@@H]3O[C@H]1C[C@H](N)[C@@H](O)[C@H](C)O1` [Epi, epirubicin], for which the “average decrease of body weight” value worked out at 22.55%.
